# Results reported in paper PMC9578445, “Association of respiratory failure with inhibition of NaV1.6 in the phrenic nerve” (Channels, 2022).
# Like-named read-outs stand apart in the source and are kept apart here.
# What was measured:
# [1] = target: T1, Human NaV1.4 (Homo sapiens, UniProt P35499); test: PatchXpress automated patch clamp, hyperpolarized-state protocol; format: cell-based; details: HEK 293 cells
# T1 construct: expressed in transfected cells
# Method: (§1) Sodium currents were recorded from recombinant Human Embryonic Kidney 293 cell lines stably overexpressing the respective sodium channel type (NaV1.2, 1.5, 1.4, 1.6, 1.7). Recording solutions were comprised of the following (in mM): Internal solution: 30 CsCl, 5 HEPES, 10 EGTA, 120 CsF, 5 NaF, 2 MgCl2, pH = 7.3 with CsOH; External solution 1: 40 NaCl, 120 NMDG, 1 KCl, 0.5 MgCl2, 5 HEPES, 2.7 CaCl2, pH to 7.3 with NaOH, used for NaV1.5 recordings; External solution 2: 150 NaCl, 5 KCl, 2 CaCl2, 1 MgCl2, 10 HEPES, 12 Dextrose, pH 7.3 with NaOH, used for NaV1.7, 1.6, 1.4, and 1.2 recordings.
# (§2) Whole-cell currents were recorded from cells stably expressing NaV channels using the PatchXpress 7000A automated patch clamp platform (Molecular Devices, LLC; Sunnyvale, CA). A portable air-conditioning unit was installed on the PatchXpress instruments to maintain the temperature of the headstage at 21°C. Cells were voltage clamped at −60 mV for cell detection and sealing. At the start of each recording, a voltage curve and an inactivation curve was run for each cell to determine the voltage at which 50% of the channels reside in the inactivated state (V0.5 inact). The voltage curve was used to determine if the cell was adequately clamped; cells with currents larger than 10nA or with space clamp issues were not used further.
# (§3) NaV1.7, NaV1.6, NaV1.4: Compound potency was measured in a hyperpolarized-state protocol where the holding potential for each cell was set to V0.5inact – 20 mV. A pulse train consisting of 7 consecutive double pulses, 8 second hypepolarizing prepulse to −120 mV followed by a test pulse to −10 mV was applied at a frequency of 0.1 Hz. First, vehicle (0.3% DMSO) was added to establish a baseline measurement. Once baseline was established, test compounds were added. Cells were exposed to compound for 5 minutes at 20 mV negative to V0.5inact then exposed to the same hyperpolarized voltage protocol. (no pulsing during compound incubation). A washout was performed to measure recovery of the sodium currents from inhibition.
# (§4) Recordings were included for analysis when current amplitude reached steady-state in vehicle, compound inhibition was concentration-dependent and currents recovered during wash-out periods. Raw data from PatchXpress experiments were retrieved from the database and analyzed using the DataXpress 2 software (Molecular Devices).
# (§5) At least 3 concentrations (3–9 replicates per concentration) were tested and at least one concentration had to cause 20–80% current inhibition.
# [2] = target: T2, Human NaV1.7 (Homo sapiens, UniProt Q15858); test: as above; format: cell-based; details: HEK 293 cells
# T2 construct: expressed in transfected cells
# T2 sequence (Q15858 whole entry): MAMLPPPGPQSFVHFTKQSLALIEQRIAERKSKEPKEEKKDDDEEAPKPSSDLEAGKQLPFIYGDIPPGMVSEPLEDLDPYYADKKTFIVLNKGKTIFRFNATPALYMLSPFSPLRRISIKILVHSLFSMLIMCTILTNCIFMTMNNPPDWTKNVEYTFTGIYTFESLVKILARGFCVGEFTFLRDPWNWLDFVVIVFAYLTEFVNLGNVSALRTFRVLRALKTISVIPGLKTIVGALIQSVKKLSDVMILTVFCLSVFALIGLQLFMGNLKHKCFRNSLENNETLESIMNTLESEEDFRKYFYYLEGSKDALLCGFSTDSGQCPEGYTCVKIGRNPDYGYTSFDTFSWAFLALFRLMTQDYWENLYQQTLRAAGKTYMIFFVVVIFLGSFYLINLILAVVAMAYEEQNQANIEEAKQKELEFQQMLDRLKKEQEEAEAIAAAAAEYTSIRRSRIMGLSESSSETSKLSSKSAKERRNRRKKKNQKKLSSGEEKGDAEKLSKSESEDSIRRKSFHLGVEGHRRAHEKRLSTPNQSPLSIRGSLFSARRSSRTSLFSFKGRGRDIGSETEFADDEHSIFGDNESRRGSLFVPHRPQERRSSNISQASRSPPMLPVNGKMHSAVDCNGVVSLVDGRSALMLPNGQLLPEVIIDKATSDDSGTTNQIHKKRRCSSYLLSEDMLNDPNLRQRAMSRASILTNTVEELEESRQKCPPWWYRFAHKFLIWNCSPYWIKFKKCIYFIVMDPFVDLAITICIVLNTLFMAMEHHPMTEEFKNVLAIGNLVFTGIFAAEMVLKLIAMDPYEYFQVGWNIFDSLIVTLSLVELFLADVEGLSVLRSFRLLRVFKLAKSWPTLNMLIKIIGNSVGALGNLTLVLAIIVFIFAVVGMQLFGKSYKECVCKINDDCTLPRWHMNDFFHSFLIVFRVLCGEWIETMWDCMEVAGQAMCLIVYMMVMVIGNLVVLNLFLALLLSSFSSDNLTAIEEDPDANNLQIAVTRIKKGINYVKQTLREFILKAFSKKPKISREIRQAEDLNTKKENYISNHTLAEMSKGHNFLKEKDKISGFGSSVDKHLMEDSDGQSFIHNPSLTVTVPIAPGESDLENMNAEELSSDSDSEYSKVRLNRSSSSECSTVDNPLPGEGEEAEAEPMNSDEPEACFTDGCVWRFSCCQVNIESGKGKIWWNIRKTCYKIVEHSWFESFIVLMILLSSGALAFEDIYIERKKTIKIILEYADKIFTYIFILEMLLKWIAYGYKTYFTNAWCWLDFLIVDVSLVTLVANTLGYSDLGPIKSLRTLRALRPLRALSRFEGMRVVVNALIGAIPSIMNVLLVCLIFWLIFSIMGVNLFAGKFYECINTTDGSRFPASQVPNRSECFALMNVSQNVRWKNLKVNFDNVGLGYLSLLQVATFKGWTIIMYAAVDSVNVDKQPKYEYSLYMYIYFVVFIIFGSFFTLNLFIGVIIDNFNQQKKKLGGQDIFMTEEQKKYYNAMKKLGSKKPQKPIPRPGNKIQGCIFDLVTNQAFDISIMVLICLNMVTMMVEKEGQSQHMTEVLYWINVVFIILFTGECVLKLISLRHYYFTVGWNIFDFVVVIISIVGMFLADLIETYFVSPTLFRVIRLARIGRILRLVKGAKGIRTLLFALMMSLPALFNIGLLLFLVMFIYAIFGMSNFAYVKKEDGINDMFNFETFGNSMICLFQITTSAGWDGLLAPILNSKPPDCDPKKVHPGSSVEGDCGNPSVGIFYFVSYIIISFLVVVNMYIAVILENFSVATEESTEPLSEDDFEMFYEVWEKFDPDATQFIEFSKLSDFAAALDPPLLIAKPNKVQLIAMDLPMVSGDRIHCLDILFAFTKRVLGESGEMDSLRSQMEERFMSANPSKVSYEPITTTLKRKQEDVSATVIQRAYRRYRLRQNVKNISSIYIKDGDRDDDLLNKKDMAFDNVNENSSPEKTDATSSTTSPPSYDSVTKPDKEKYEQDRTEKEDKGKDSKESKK
# Method: as §1, §2, §3, §4, §5
# [3] = target: T3, Rat NaV1.6 (Rattus norvegicus, UniProt O88420); test: as above; format: cell-based; details: HEK cells, hyperpolarized protocol
# T3 construct: expressed in transfected cells; host or cells: HEK cells
# Method: as §1, §2, §3, §4, §5
# [4] = tested on: anesthetized male CD rats; test: Rat Cardiovascular/Respiratory (CV/R) assay; format: in vivo; set-up: ∆ QRS Interval: unit not given here
# Method: Male CD Rats were anesthetized with ketamine:xylazine (85 mg/kg:5 mg/kg, im, to effect). The left femoral artery and vein were cannulated for the measurement of blood pressure and the administration of test agent, respectively. The right femoral vein was cannulated for maintenance anesthetic infusion (ketamine:xylazine ~35 mg/kg/hr:1.5 mg/kg/hr, iv, to effect). Needle electrodes were placed subcutaneously at the right axillary and left inguinal areas to record lead II ECGs. When ECG intervals were required to determine effect on cardiac conduction a pacing/recording electrode catheter was advanced through the right jugular vein to pace the heart. ECG intervals were then measured at a fixed cardiac rate of 400 beats/minute to remove any variability of intrinsic heart rate on these parameters.
# To determine the test agent-dependent effect on respiratory rate, a tracheotomy was also performed using a short length of polyethylene tubing containing a thermistor (AD Instruments). The change in temperature detected by the thermistor was used to calculate respiratory rate.
# (§6) For in vivo CVR and phrenic nerve activity studies, all raw signals were amplified via general purposed biological amplifier (filter settings DC – 3-5 KhZ) then digitized, calibrated and collected at a minimum of 500 Hz (1000 Hz for ECG and 2000 Hz for cardiac electrograms, and 10 KHz for phrenic nerve activity) using Notocord-HEM data acquisition and analysis software. The raw signal was filtered following acquisition with a bandpass filter set to 200–800 Hz). Vehicle (100% dimethylformamdide, DMF) or compound formulated in the vehicle was administered as a 30-minute IV infusion at 0.0167 μL/g body weight/min. Doses were selected to achieve unbound plasma concentrations in range of measured Nav1.6 IC50 values when infused at 0.0167uL/g body weight/min based on measured rat clearance, plasma protein binding and Nav1.6 IC50. Exposure in rats was determined in separate pharmacokinetics experiments where compounds were administered via IV dosing.
# [5] = Plasma exposure in rat CV/R assay; format: in vivo; details: for concentration at 15 min / concentration at 30 min: male, CD, plasma, iv
# Description: as §6, with “Doses were selected to achieve unbound plasma concentrations in range of measured Nav1.6 IC50 values when infused at 0.0167uL/g body weight/min based on measured rat clearance, plasma protein binding and Nav1.6 IC50.” left out
# [6] = target: Pgp (Homo sapiens, UniProt P08183); test: Permeability BA/AB ratio (Pgp transport); format: in vitro ADME; details: not told
# Sequence of Pgp (P08183 whole entry): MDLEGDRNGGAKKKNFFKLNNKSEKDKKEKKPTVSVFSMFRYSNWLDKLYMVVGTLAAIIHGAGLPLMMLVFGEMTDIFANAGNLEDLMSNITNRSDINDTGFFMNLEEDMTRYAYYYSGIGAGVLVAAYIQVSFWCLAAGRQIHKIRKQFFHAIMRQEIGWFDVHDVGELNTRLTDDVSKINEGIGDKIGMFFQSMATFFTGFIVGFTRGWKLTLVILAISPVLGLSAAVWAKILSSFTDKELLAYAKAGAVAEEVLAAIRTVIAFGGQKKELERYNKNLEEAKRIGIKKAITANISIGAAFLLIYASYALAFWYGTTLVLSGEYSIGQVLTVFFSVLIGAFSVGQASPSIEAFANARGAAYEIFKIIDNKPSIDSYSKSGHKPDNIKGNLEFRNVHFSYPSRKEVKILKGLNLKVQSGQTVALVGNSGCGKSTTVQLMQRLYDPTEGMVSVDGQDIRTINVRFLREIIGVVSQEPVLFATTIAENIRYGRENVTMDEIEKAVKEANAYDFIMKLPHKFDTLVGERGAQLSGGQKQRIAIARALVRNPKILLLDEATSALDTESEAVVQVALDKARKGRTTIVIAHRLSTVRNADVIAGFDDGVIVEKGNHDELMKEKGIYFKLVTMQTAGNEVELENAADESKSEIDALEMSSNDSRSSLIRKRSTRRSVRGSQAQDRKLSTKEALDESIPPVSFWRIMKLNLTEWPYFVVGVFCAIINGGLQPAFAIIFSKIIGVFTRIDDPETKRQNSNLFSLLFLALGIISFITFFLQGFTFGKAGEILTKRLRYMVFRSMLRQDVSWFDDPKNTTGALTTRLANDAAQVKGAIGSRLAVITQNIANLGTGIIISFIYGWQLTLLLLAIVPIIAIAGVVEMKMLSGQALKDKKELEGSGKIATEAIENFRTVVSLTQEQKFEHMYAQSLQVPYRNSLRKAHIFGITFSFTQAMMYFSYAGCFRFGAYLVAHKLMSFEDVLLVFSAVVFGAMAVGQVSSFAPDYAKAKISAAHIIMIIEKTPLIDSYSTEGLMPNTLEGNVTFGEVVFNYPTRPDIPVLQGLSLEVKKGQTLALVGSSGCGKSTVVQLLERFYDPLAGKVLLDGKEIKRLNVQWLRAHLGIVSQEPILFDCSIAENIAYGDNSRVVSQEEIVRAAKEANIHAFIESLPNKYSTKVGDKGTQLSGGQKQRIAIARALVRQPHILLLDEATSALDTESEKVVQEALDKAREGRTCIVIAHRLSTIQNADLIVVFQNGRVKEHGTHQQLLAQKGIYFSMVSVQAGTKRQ
# [7] = target: Nav1.6 (Homo sapiens, UniProt Q9UQD0); test: PatchXpress automated patch clamp, hyperpolarized-state protocol; format: cell-based; set-up: expressed in transfected cells; details: HEK 293 cells, hyperpolarized protocol
# Method: as §1, §2, §3, §4, §5
# [8] = rat, IV infusion, 30 mg/kg, 15 min
# [9] = rat, IV infusion, 30 mg/kg, 30 min
# [10] = rat, IV infusion, 60 mg/kg, 15 min
# [11] = rat, 30 mg/kg, rat, IV infusion, 30 mg/kg, read-out: Total [plasma]
# [12] = rat, 30 mg/kg, rat, IV infusion, 30 mg/kg, read-out: Unbound [plasma]
# [13] = rat, IV infusion, 60 mg/kg, 21–23 min, just prior to death
# T1 sequence (P35499 whole entry): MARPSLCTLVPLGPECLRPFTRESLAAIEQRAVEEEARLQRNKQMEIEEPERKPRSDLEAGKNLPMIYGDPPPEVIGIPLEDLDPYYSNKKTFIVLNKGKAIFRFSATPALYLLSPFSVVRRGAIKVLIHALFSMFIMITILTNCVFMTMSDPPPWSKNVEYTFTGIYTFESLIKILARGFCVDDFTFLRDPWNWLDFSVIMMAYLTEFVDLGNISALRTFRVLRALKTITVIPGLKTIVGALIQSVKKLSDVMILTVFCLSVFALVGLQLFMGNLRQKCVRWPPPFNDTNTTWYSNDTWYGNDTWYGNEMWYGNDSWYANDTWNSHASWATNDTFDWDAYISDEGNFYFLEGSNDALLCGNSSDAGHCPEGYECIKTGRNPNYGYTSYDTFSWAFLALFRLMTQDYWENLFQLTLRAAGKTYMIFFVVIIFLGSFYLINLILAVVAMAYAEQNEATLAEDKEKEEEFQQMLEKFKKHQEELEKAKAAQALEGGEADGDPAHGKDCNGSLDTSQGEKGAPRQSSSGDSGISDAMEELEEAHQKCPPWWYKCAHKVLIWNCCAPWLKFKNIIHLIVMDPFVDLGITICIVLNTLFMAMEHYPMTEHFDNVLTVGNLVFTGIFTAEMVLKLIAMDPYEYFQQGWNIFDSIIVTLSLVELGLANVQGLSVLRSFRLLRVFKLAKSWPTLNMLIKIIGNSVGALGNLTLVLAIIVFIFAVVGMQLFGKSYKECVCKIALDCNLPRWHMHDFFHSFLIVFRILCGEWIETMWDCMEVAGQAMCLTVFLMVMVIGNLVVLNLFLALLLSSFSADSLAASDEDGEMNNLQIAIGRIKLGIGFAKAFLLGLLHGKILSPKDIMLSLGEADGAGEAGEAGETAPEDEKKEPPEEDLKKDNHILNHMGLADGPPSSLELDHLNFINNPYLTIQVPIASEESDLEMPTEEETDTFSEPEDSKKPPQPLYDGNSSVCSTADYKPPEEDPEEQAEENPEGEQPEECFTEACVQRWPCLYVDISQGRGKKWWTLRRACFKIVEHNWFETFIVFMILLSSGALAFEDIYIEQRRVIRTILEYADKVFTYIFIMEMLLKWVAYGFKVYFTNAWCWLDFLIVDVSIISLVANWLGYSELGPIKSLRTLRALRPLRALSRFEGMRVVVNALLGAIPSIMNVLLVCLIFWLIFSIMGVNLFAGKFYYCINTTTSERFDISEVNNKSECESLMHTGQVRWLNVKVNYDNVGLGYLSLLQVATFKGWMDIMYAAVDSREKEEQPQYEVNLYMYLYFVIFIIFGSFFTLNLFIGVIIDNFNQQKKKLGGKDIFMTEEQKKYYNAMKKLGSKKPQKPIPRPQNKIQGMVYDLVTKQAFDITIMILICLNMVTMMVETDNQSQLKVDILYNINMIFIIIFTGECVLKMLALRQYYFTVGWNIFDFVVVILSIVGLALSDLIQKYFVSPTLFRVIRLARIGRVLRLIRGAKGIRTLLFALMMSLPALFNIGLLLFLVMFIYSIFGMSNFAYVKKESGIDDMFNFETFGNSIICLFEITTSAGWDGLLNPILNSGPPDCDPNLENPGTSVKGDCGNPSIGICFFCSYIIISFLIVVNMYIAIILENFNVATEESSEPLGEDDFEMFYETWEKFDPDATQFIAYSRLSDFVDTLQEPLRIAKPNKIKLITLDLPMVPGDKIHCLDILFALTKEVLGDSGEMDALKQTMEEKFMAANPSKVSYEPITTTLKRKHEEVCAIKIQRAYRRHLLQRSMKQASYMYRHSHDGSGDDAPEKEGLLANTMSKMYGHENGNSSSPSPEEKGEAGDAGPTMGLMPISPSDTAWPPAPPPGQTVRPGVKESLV
smiles,measurement,setting,value
N#Cc1cc(S(=O)(=O)Nc2cscn2)ccc1Oc1ccc(Cl)cc1-c1ccnn1C1CNC1 [SSCI-5],IC50,[1],> 30 µM
same,IC50,[2],2.1 µM
same,IC50,[3],7.4 µM
same,mortality,"[4]; rat CV/R assay, IV infusion, doses tested",mortality
same,∆ Heart Rate,[4]; [8],−1.7 ± 1.3 bpm
same,∆ Mean Arterial Pressure,[4]; [8],14.0 ± 2.1 mmHg
same,∆ QRS Interval,[4]; [8],1.5 ± 1.1
same,∆ respiratory rate,[4]; [8],−13.0 ± 3.4%
same,∆ Heart Rate,[4]; [9],−3.7 ± 2.8 bpm
same,∆ Mean Arterial Pressure,[4]; [9],13.3 ± 5.5 mmHg
same,∆ QRS Interval,[4]; [9],4.6 ± 3.2
same,∆ respiratory rate,[4]; [9],−10.2 ± 2.6%
same,∆ respiratory rate,"[4]; rat, IV infusion, 60 mg/kg, 21–23 min",−100%
same,∆ Heart Rate,[4]; [10],1.0 bpm
same,∆ Mean Arterial Pressure,[4]; [10],5.2 mmHg
same,∆ QRS Interval,[4]; [10],5.2
same,∆ respiratory rate,[4]; [10],−15.6%
same,time to respiratory and cardiac collapse,"[4]; rat, infusion without ventilatory support",≤ 30 min
same,concentration at 15 min,[5]; [11],38.2 ± 1.6 µM
same,concentration at 15 min,[5]; [12],4.9 ± 0.2 µM
same,concentration at 30 min,[5]; [11],42.1 ± 1.2 µM
same,concentration at 30 min,[5]; [12],5.4 ± 0.2 µM
same,concentration at 15 min,"[5]; rat, 60 mg/kg, rat, IV infusion, 60 mg/kg, read-out: Total [plasma]",67.7 µM
same,concentration at 15 min,"[5]; rat, 60 mg/kg, rat, IV infusion, 60 mg/kg, read-out: Unbound [plasma]",8.7 µM
same,unbound plasma concentration just prior to death,"[5]; rat CV/R assay, blood samples taken just prior to death",19.7 µM
same,Total [plasma],[5]; [13],154a μM
same,Unbound [plasma],[5]; [13],19.7a μM
same,efflux ratio,[6],< 999
same,IC50,[7],4.61 µM
